In brackets after ≈: the same amount, converted by molar mass.
Legend:
[1] = system: isolated ileum of guinea pigs; experiment: Spasmolysis of histamine-induced contraction on isolated guinea pig ileum, organ bath; type: cell-based; conditions: Cavia porcellus; histamine dihydrochloride as spasmogen, 0.2-2 μg/ml; at least six individual tests; read-out: ED50 on guinea pig ileum
Method: (§1) Experiments were carried out on the isolated ileum and on the isolated trachea of guinea pigs in a typical manner in vitro in a suitable organ bath. Histamine dihydrochloride was used as a spasmogen in a final concentration of 0.2-2 μg/ml, depending on the organ preparation. The activity of the compounds was determined from the reactive spasmolysis, i.e., the relative decrease in the force of contractions compared with zero dose. The concentration-action relation was calculated from the non-linear regression between dose and action from at least six individual tests.

[2] = system: isolated trachea of guinea pigs; experiment: Spasmolysis of histamine-induced contraction on isolated guinea pig trachea, organ bath; type: cell-based; conditions: Cavia porcellus; histamine dihydrochloride as spasmogen, 0.2-2 μg/ml; at least six individual tests; read-out: ED50 on the isolated tracheal preparation
Method: as §1

[3] = system: histamine-induced skin weal in the mouse; experiment: Duration of inhibition of histamine-induced skin weal in the mouse after a single oral dose; type: in vivo; conditions: oral administration of a comparable dose (to 6 mg/kg)
Method: The experiments were carried out on male NMRI mice with a body weight of 25-30 g. […] The dyestuff concentration determined by photometry in a defined area of skin can be designated a measure of the antihistamine activity.

Compound: COc1cccc(CN2CCC(C(O)(c3ccccc3)c3ccccc3)CC2)c1 [[4-(Hydroxydiphenylmethyl)-1-piperidyl]-(3-methoxyphenyl)methane]
- IC50 [1]: 0.029 µg/mL (≈ 0.0748 µM)
- IC50 [2]: 3.5 µg/mL (≈ 9.03 µM)

Compound: CC(C)(C)c1ccc(C(O)CCCN2CCC(C(O)(c3ccccc3)c3ccccc3)CC2)cc1 (stereo not drawn) [terfenadine, α-[4-(1,1-Dimethylethyl)phenyl]-4-(hydroxydiphenylmethyl)-1-piperidinobutanol]
- antihistamine action after 4 hours [3]: no longer possible to measure reliably an antihistamine action
- IC50 [1]: 0.062 µg/mL (≈ 0.131 µM)
- IC50 [2]: 4.1 µg/mL (≈ 8.69 µM)
